From the NIST ThermoML archive (doi:10.1016/j.fluid.2019.02.010)
± gives the expanded uncertainty stated by the source.

Assay: xn = mol fraction of the nth substance listed
Details: 101 kPa, Liquid, Vibrating tube method

CCN(CC)CC(=O)Nc1c(C)cccc1C [2-(diethylamino)-N-(2,6-dimethylphenyl)acetamide] + CCCCCCCCCC(=O)O
mass density [kg/m3]
Details	293 K	298 K	303 K	308 K	313 K	318 K	323 K	328 K
x2 = 0.667	960.9 ± 0.6	956.8 ± 0.6	952.8 ± 0.6	948.7 ± 0.6	944.7 ± 0.6	940.6 ± 0.6	936.4 ± 0.6	932.3 ± 0.6
x2 = 0.75	952.5 ± 0.6	948.4 ± 0.6	944.3 ± 0.6	940.2 ± 0.6	936.1 ± 0.6	931.9 ± 0.6	927.7 ± 0.6	923.5 ± 0.6
x2 = 0.8	944.9 ± 0.6	940.9 ± 0.6	936.9 ± 0.6	932.9 ± 0.6	928.9 ± 0.6	924.7 ± 0.6	920.6 ± 0.6	916.4 ± 0.6

CCN(CC)CC(=O)Nc1c(C)cccc1C [2-(diethylamino)-N-(2,6-dimethylphenyl)acetamide] + CCCCCCCCCCCC(=O)O
x2 = 0.667
Details	mass density [kg/m3]
293 K	949.6 ± 0.6
298 K	945.6 ± 0.6
303 K	941.6 ± 0.6
308 K	937.6 ± 0.6
313 K	933.6 ± 0.6
318 K	929.6 ± 0.5
323 K	925.55 ± 0.54
328 K	921.5 ± 0.5

CCN(CC)CC(=O)Nc1c(C)cccc1C [2-(diethylamino)-N-(2,6-dimethylphenyl)acetamide] + Cc1ccc(C(C)C)c(O)c1
x2 = 0.667
Details	mass density [kg/m3]
293 K	989.1 ± 0.2
298 K	985.4 ± 0.2
303 K	981.6 ± 0.2
308 K	977.9 ± 0.2
313 K	974.2 ± 0.2
318 K	970.4 ± 0.2
323 K	966.6 ± 0.2
328 K	962.9 ± 0.2

Cc1ccc(C(C)C)c(O)c1 [3-methyl-6-isopropylphenol] + CCCCCCCCCC(=O)O
x2 = 0.5
Details	mass density [kg/m3]
293 K	931.8 ± 0.5
298 K	928 ± 0.5
303 K	924.2 ± 0.5
308 K	920.3 ± 0.5
313 K	916.5 ± 0.5
318 K	912.6 ± 0.5
323 K	908.7 ± 0.4
328 K	904.9 ± 0.4

CCCCCCCCCC(=O)O [decanoic acid] + CC(C)[C@@H]1CC[C@@H](C)C[C@H]1O
x1 = 0.5
Details	mass density [kg/m3]
293 K	901.1 ± 0.4
298 K	897.6 ± 0.4
303 K	894 ± 0.4
308 K	890.4 ± 0.4
313 K	886.7 ± 0.4
318 K	883.1 ± 0.4
323 K	879.4 ± 0.4
328 K	875.7 ± 0.4

CCCCCCCC[N+](CCCCCCCC)(CCCCCCCC)CCCCCCCC.[Br-] [tetraoctylammonium bromide] + CCCCCCCCCC(=O)O
x2 = 0.667
Details	mass density [kg/m3]
293 K	932.9 ± 0.8
298 K	929.6 ± 0.8
303 K	926.3 ± 0.8
308 K	923 ± 0.8
313 K	919.7 ± 0.8
318 K	916.5 ± 0.7
323 K	913.2 ± 0.7
328 K	910 ± 0.7
